Laboratory results taken from ChEMBL document CHEMBL3612037, “Design and synthesis of some new pyrazolyl-pyrazolines as potential anti-inflammatory, analgesic and antibacterial agents” (Eur J Med Chem, 2015).
In brackets after ≈: the same amount, converted by molar mass. Activity calls are given as the source filed them. The calls are words filed in the database; no cut-off is given here.

Tests used:
[1] = Acute toxicity in Swiss mouse at 100 to 1000 mg/kg, po measured 48 hrs post dose; format: organism-based; settings: in vivo
Staphylococcus [2] = assay: Antimicrobial activity against Staphylococcus citreus at 20 uL of 1 mg/ml by disc diffusion assay; format: functional; settings: read-out: IZ
Staphylococcus aureus [3] = assay: Antimicrobial activity against Staphylococcus aureus at 20 uL of 1 mg/ml by disc diffusion assay; format: functional; settings: read-out: IZ
Rattus norvegicus [4] = assay: Anti-inflammatory activity in Wistar rat assessed as inhibition of carrageenan-induced paw oedema at 50 mg/kg, po dosed 30 mins before carrageenan challenge and measured 30 mins post carrageenan challenge; format: functional
Mus musculus [5] = assay: Acute toxicity in Swiss mouse assessed as induction of diarrhoea incidence at 100 to 1000 mg/kg, po measured 48 hrs post dose; format: organism-based; settings: in vivo
Rattus norvegicus [6] = assay: Analgesic activity in Wistar rat assessed as tail flick latency time at 50 mg/kg, po measured 0 mins post dose by tail flick method (reference value: 3.5 +/- 0.8 secs); format: functional
Rattus norvegicus [7] = assay: Analgesic activity in Wistar rat assessed as tail flick latency time at 50 mg/kg, po measured 30 mins post dose by tail flick method (reference value: 3.46 +/- 0.1 secs); format: functional
Rattus norvegicus [8] = assay: Anti-inflammatory activity in Wistar rat assessed as inhibition of carrageenan-induced paw oedema at 50 mg/kg, po dosed 30 mins before carrageenan challenge and measured 60 mins post carrageenan challenge; format: functional
Rattus norvegicus [9] = assay: Analgesic activity in Wistar rat assessed as tail flick latency time at 50 mg/kg, po measured 60 mins post dose by tail flick method (reference value: 3.47 +/- 0.1 secs); format: functional
Aeromonas hydrophila [10] = assay: Antimicrobial activity against Aeromonas hydrophila at 20 uL of 1 mg/ml by disc diffusion assay; format: functional; settings: read-out: IZ
Rattus norvegicus [11] = assay: Analgesic activity in Wistar rat assessed as tail flick latency time at 50 mg/kg, po measured 90 mins post dose by tail flick method (reference value: 3.7 +/- 0.1 secs); format: functional
Staphylococcus aureus [12] = assay: Antimicrobial activity against Staphylococcus aureus by agar dilution method; format: functional
Rattus norvegicus [13] = assay: Anti-inflammatory activity in Wistar rat assessed as inhibition of carrageenan-induced paw oedema at 50 mg/kg, po dosed 30 mins before carrageenan challenge and measured 120 mins post carrageenan challenge; format: functional
Mus musculus [14] = assay: Acute toxicity in Swiss mouse assessed as induction of depression incidence at 100 to 1000 mg/kg, po measured 48 hrs post dose; format: organism-based; settings: in vivo
Escherichia coli [15] = assay: Antimicrobial activity against Escherichia coli at 20 uL of 1 mg/ml by disc diffusion assay; format: functional; settings: for zone of inhibition at 1000 µg/mL: read-out: IZ
Aeromonas hydrophila [16] = assay: Antimicrobial activity against Aeromonas hydrophila by agar dilution method; format: functional
Escherichia coli [17] = assay: Antimicrobial activity against Escherichia coli by agar dilution method; format: functional
Staphylococcus [18] = assay: Antimicrobial activity against Staphylococcus citreus by agar dilution method; format: functional
Rattus norvegicus [19] = assay: Analgesic activity in Wistar rat assessed as tail flick latency time at 20 mg/kg, po measured 90 mins post dose by tail flick method (reference value: 3.7 +/- 0.1 secs); format: functional
Rattus norvegicus [20] = assay: Analgesic activity in Wistar rat assessed as tail flick latency time at 20 mg/kg, po measured 0 mins post dose by tail flick method (reference value: 3.5 +/- 0.8 secs); format: functional
Rattus norvegicus [21] = assay: Analgesic activity in Wistar rat assessed as tail flick latency time at 20 mg/kg, po measured 60 mins post dose by tail flick method (reference value: 3.47 +/- 0.1 secs); format: functional
Rattus norvegicus [22] = assay: Analgesic activity in Wistar rat assessed as tail flick latency time at 20 mg/kg, po measured 30 mins post dose by tail flick method (reference value: 3.46 +/- 0.1 secs); format: functional

SMILES	LD50 at 48 h [1] [mg/kg]	zone of inhibition at 1000 µg/mL (Staphylococcus [2]) [mm]	zone of inhibition at 1000 µg/mL (Staphylococcus aureus [3]) [mm]	inhibition in vivo at 50 mg/kg (Rattus norvegicus [4]) [%]	Activity (Mus musculus [5])	Time (Rattus norvegicus [6]) [s]	Time (Rattus norvegicus [7]) [s]	inhibition in vivo at 50 mg/kg (Rattus norvegicus [8]) [%]	Time (Rattus norvegicus [9]) [s]	zone of inhibition at 1000 µg/mL (Aeromonas hydrophila [10]) [mm]	Time (Rattus norvegicus [11]) [s]	MIC (Staphylococcus aureus [12]) [µg/mL]	inhibition in vivo at 50 mg/kg (Rattus norvegicus [13]) [%]	Activity (Mus musculus [14])	MIC (Aeromonas hydrophila [16]) [µg/mL]	MIC (Escherichia coli [17]) [µg/mL]	MIC (Staphylococcus [18]) [µg/mL]	also measured
CCC(=O)N1N=C(c2ccc(Cl)cc2)CC1c1cn(-c2ccccc2)nc1-c1ccc(Cl)c(Cl)c1 (configuration not stated)	500	18	30	47.9	Non-toxic	3.3	6.1	61.1	6.8	23	5.4	300 (≈ 573 µM)	68.8	Non-toxic	–	–	–	zone of inhibition at 1000 µg/mL (Escherichia coli [15]): 19 mm
Clc1ccc(C2=NN(c3ccccc3)C(c3cn(-c4ccccc4)nc3-c3ccc(Cl)c(Cl)c3)C2)cc1 (configuration not stated)	500	19	15	45.7	Non-toxic	4.3	6.1	53.4	6.1	28	4.9	–	61.7	Non-toxic	400 (≈ 735 µM)	–	–	inhibition zone (IZ) (Escherichia coli [15]): inactive
Clc1ccc(C2=NNC(c3cn(-c4ccccc4)nc3-c3ccc(Cl)c(Cl)c3)C2)cc1 (configuration not stated)	500	18	21	33	Non-toxic	3.6	5.4	45.8	5.7	15	4.6	–	48.4	Non-toxic	–	200 (≈ 428 µM)	–	zone of inhibition at 1000 µg/mL (Escherichia coli [15]): 34 mm
CN(C)[C@@H]1C(O)=C(C(N)=O)C(=O)[C@@]2(O)C(O)=C3C(=O)c4c(O)cccc4[C@@](C)(O)[C@H]3C[C@@H]12 [TETRACYCLINE]	–	–	–	–	–	–	–	–	–	–	–	300 (≈ 675 µM)	–	–	400 (≈ 900 µM)	400 (≈ 900 µM)	300 (≈ 675 µM)	–
CC(C)=CCN1CC[C@]2(C)c3cc(O)ccc3C[C@H]1[C@H]2C [(+)-PENTAZOCINE]	–	–	–	–	–	–	–	–	–	–	–	–	–	–	–	–	–	Time (Rattus norvegicus [19]): 7.9 s; Time (Rattus norvegicus [20]): 3.6 s; Time (Rattus norvegicus [21]): 7.7 s; Time (Rattus norvegicus [22]): 7.4 s
CN[C@H](CC(C)C)C(=O)N[C@H]1C(=O)N[C@@H](CC(N)=O)C(=O)N[C@H]2C(=O)N[C@H]3C(=O)N[C@H](C(=O)N[C@H](C(=O)O)c4cc(O)cc(O)c4-c4cc3ccc4O)[C@H](O)c3ccc(c(Cl)c3)Oc3cc2cc(c3O[C@@H]2O[C@H](CO)[C@@H](O)[C@H](O)[C@H]2O[C@H]2C[C@](C)(N)[C@H](O)[C@H](C)O2)Oc2ccc(cc2Cl)[C@H]1O [VANCOMYCIN]	–	–	–	–	–	–	–	–	–	–	–	500 (≈ 345 µM)	–	–	–	–	500 (≈ 345 µM)	–
CC1(C)S[C@@H]2[C@H](NC(=O)[C@H](N)c3ccccc3)C(=O)N2[C@H]1C(=O)O [AMPICILLIN]	–	–	–	–	–	–	–	–	–	–	–	300 (≈ 859 µM)	–	–	200 (≈ 572 µM)	100 (≈ 286 µM)	200 (≈ 572 µM)	–
CO/N=C(\C(=O)N[C@@H]1C(=O)N2C(C(=O)O)=C(COC(N)=O)CS[C@H]12)c1ccco1 [CEFUROXIME]	–	–	–	–	–	–	–	–	–	–	–	–	–	–	500 (≈ 1180 µM)	500 (≈ 1180 µM)	600 (≈ 1410 µM)	–
